Data: patent US20220144775A1, “HYDRAZIDE COMPOUND AND KINASE INHIBITOR” (NISSAN CHEMICAL CORPORATION, priority 2019, published 2022)

Legend:
MDCK cells = test: Observation of Cyst form with confocal fluorescence microscope; type: cell-based, canine; settings: 10 μM; β catenin, Phalloidin, DAPI staining; FIG. 1
Procedure: As for the respective Matrix GFRs containing Cyst cultured in a medium added with DMSO or A-004A (10 μM) and obtained in Experimental Example 3, the cells were washed with PBS (1 mL/well), 4% paraformaldehyde/PBS (manufactured by FUJIFILM Wako Pure Chemical Corporation) was added (1 mL/well) and fixed at room temperature for 20 min. Thereafter, the supernatant was removed, staining buffer [0.2% Triton X-100 (manufactured by Sigma-Aldrich), 0.05% Tween 20 (manufactured by Sigma-Aldrich)-containing PBS] were added at 1 mL/well, stood for 30 min and removed. Penetration buffer (0.5% Triton X-100 (manufactured by Sigma-Aldrich)/PBS) was added at 1 mL/well and incubated at room temperature for 30 min. The supernatant was removed, washed 3 times every 5 min with staining buffer, blocking buffer (1% bovine serum albumin (BSA manufactured by Sigma-Aldrich)/staining buffer) was added at 0.5 mL/well and incubated for 30 min. The supernatant was removed, an anti-β catenin antibody (manufactured by BD Bioscience) diluted 100-fold with blocking buffer was added at 250 μL/well, and the cells were incubated at room temperature for 60 min. […]

[1] = test system: Colitis model administered with dextran sulfate sodium (DSS); test: Inflammation suppressive effect on DSS colitis model mouse; type: in vivo; settings: C57BL/6NCrl mice; 2.5 w/v % DSS drinking water; 50 mg/kg intraperitoneally every 24 hr; day 8; FIG. 3
Procedure: Colitis model administered with dextran sulfate sodium (DSS) (manufactured by FUJIFILM Wako Pure Chemical Corporation) was produced as described below. The length of the large intestine is used as a morphological parameter in the evaluation of colitis, and the large intestine shortens according to the degree of inflammation. Therefore, the anti-inflammatory effect of the compound was evaluated by comparing the length of the large intestine. As the Buffer, a 0.5 w/v % methylcellulose aqueous solution (manufactured by FUJIFILM Wako Pure Chemical Corporation) added with Dimethyl sulfoxide (manufactured by FUJIFILM Wako Pure Chemical Corporation) at 1 v/v % was used. It was prepared by suspending compound A-004A in the above-mentioned Buffer at 5 mg/mL. As the mouse, male C57BL/6NCrl, 6-week-old, was purchased from CHARLES RIVER LABORATORIES JAPAN, INC. As drinking water, distilled water or a 2.5 w/v % DSS aqueous solution was freely given. The DSS drinking start date was set as day 1, and the water was given until day 8. Compound A-004A was intraperitoneally administered at 50 mg/kg every 24 hr from day 1. As a negative control, Buffer alone was administered similarly. On day 8, the mouse was dissected, the large intestine was isolated and the length of the large intestine was measured. Conducted in 3-4 cases in each group.

YAP = YAP phosphorylation inhibitory action in SKOV3 (HTRF); type: cell-based, human; settings: 10 μM, 1 hr, non-treatment 100%
Procedure: Human ovarian cancer cell line SKOV3 (manufactured by DS Pharma Biomedical Co., Ltd.) was precultured using a 15% FBS-containing McCoy's 5a medium (manufactured by Sigma-Aldrich) (single layer culture). The above-mentioned cells in the logarithmic growth phase were washed with PBS. A 0.25% (w/v) trypsin-1 mmol/L ethylenediaminetetraacetic acid (EDTA) solution (manufactured by FUJIFILM Wako Pure Chemical Corporation) was added and the adherent cells were incubated at 37° C. for 3 min and detached. The above-mentioned medium was added, and the cells were centrifuged and resuspended in the same medium.
According to the method of patent document 1 (WO 2014/017513), a composition of 10% FBS-containing DMEM medium (Phenol-red free, manufactured by FUJIFILM Wako Pure Chemical Corporation) containing 0.015% (w/v) deacylated gellan gum (KELCOGEL CG-LA, manufactured by SANSHO Co., Ltd.) was prepared using FCeM-series Preparation Kit (manufactured by FUJIFILM Wako Pure Chemical Corporation). Then, various cells prepared above were suspended in the above-mentioned medium composition (3D culture conditions) added with deacylated gellan gum or a medium without the addition (2D culture conditions), and seeded on a 50 μL/well (manufactured by Corning Incorporated, a 96 well flat bottom plate, #3585, 2D culture conditions) or 25 μL/well (manufactured by Corning Incorporated, 96 well low adhesion flat bottom plate, #3474) at 100000 cells/well. The plate was allowed to stand at 37° C. in a 5% CO2 incubator, and the compound of the present invention diluted with the medium at 2 or 6 times the final concentration, DMSO, or the medium alone was added to the plate 3 hr after the seeding at 50 μL/well (2D culture conditions) or 5 μL/well (3D culture conditions) to make the final concentration of each compound 10 μM. After culture at 37° C. in a 5% CO2 incubator for 1 hr, the supernatant was aspirated, supplemented Lysis buffer (1-fold concentration, manufactured by Cisbio, YAP-total kit or YAP phospho-S27 kit) (50 μL) was added under 2D culture conditions, and supplemented Lysys buffer (4-fold concentration) (10 μL) was added to the culture supernatant under 3D conditions, and the mixture was stirred by a plate shaker for 30 min. Thereafter, the plate was centrifuged, 16 μL of the supernatant was transferred to a 384-well white plate (Corning, #4512), and each antibody solution (pYAP d2 antibody or Total-YAP d2 antibody, and pYAP Cryptate antibody or Total-YAP Cryptate antibody) included in the kit was added at 4 μL/well in total, and the mixture was allowed to stand at room temperature overnight. As a blank control, pYAP Cryptate antibody or Total-YAP Cryptate antibody alone was added to cells free of stimulation with compound and the mixture was treated in the same manner. The next day, the wavelengths at 665 nm and 615′ nm were measured in the HTRF mode of EnVision (manufactured by PerkinElmer).
The obtained signal was calculated as follows. Ratio=signal (665 nm)/signal (615 nm)×10000, ΔR=Signal(Ratio)−Background fluorescence, and the relative phosphorylated YAP amount or total YAP amount for each compound when ΔR of the compound non-addition group (non-treatment) is 100% is shown in Tables 7 and 8 (2D culture), and Tables 9 and 10 (3D culture). From the results, it was shown that the compound of the present zo invention has a YAP phosphorylation inhibitory action under both 2D and 3D culture conditions.

## CC/C(=N\NC(=O)C(C)Nc1cccnc1)c1ccc(O)c(C)c1O (single isomer, unassigned) [A-004A, (E)-N′-(1-(2,4-dihydroxy-3-methylphenyl)propylidene)-2-(pyridin-3-ylamino)propanehydrazide]
MDCK cells
  Cyst form: Cyst with a normal form was formed
[1]
  length of the large intestine: shortening of the large intestine was suppressed more
YAP; 2D culture conditions
  phosphorylated YAP amount (%): 14%
  total YAP amount (%): 97%
YAP; 3D culture conditions
  phosphorylated YAP amount (%): 11%
  total YAP amount (%): 112%
